Data as given in patent US12503432B2, “Ionizable lipids for nucleic acid delivery” (Global Life Sciences Solutions Canada ULC, priority 2019, dated 2025).

Experiments:
[1] = LNP characterization: size and PDI by dynamic light scattering, mRNA encapsulation efficiency by RiboGreen assay; assay type: physicochemical
Description: Particle sizes and “polydispersity index” (PDI) of the lipid particle were measured by dynamic light scattering (DLS). PDI indicates the width of the particle distribution. This is a parameter calculated from a cumulative analysis of the (DLS)-measured intensity autocorrelation function assuming a single particle size mode and a single exponential fit to the autocorrelation function. […] The particles produced by mechanical micromixers such as the NanoAssemblr® Spark™ and NanoAssemblr® Benchtop (Precision NanoSystems Inc.) are substantially homogeneous in size assuming all other variables are neutral. A lower PDI indicates a more homogenous population of lipid particles. The Spark™ instrument is used in a screening setting to identify the lead compositions. Once the composition is selected, the lipid particle can be fine-tuned using the NanoAssemblr® Benchtop. Once the process parameters Flow Rate Ratio and Total Flow Rate is identified for the specific nanoparticle composition, the nanoparticle technology can be scaled up using the same process parameter values.
Lipid particles were also manufactured by a larger microfluidic mixer instrument, the NanoAssemblr® Ignite™ for testing. Briefly, 350 μL of mRNA was diluted using 100 mM sodium acetate buffer to the required concentration of 0.2 to 0.3 mg/mL. Lipid particle samples were then prepared by running both fluids, namely, nucleic acids in aqueous solvent and Lipid Mix in ethanol at a flow ratio of 3:1 and at a total flow rate of 12 ml/min in the microfluidic mixer. Following mixing in the microfluidic device, the post cartridge lipid nucleic acid particle sample was diluted into RNAse free tubes containing three to 40 volumes of phosphate buffered saline (PBS), pH 7.4. Ethanol was finally removed through dialysis in PBS, pH 7, or using Amicon™ centrifugal filters (Millipore, USA) at 3000 RPM, or using TFF systems. Once the required concentration was achieved, the lipid nucleic acid particles were filter sterilized using 0.2 μm filters in aseptic conditions. Final encapsulation efficiency was measured by the Ribogreen™ assay. Quant-iT™ RiboGreen® RNA Reagent and Kit (Invitrogen) following manufacturer directions.
Messenger RNA or plasmid nucleic acid therapeutic (NAT) as described below, was diluted using sodium acetate buffer to the required concentration. Lipid nucleic acid particle (LNAP) samples were then prepared by running both fluids using the NanoAssemblr® Spark instrument. Briefly, […] of nucleic acids in 100 mM sodium acetate buffer in a total volume of 32 μL was mixed with 16 μL of 37.5 mM lipid mix solution as required by the N/P ratios (4, 6, or 10 in illustrated examples). The microfluidically mixed lipid nucleic acid particles (LNAP) made in the instrument were immediately diluted down with 48 μL Ca++ and Mg++ free 1× PBS at pH 7.4 in the aqueous output well. These LNAP were immediately collected into microcentrifuge tubes containing 96 μL of the same buffer at pH 7.4. Encapsulation efficiency was measured by a modified Ribogreen™ assay (Quanti-iT RiboGreen™ RNA assay kit, Fisher). This information was used to establish the desired dosage.
After the lipid particles were made as described in Example 17, particle size (hydrodynamic diameter of the particles) was determined by Dynamic Light Scattering (DLS) using a ZetaSizer™ Nano ZS™ (Malvern Instruments, UK). He/Ne laser of 633 nm wavelength was used as the light source. Data were measured from the scattered intensity data conducted in backscattering detection mode (measurement angle=173). Measurements were an average of 10 runs of two cycles each per sample. Z-Average size was reported as the particle size, and is defined as the harmonic intensity averaged particle diameter. These LNP characteristics, as well as the results of the mRNA encapsulation efficiency for various Lipid Mixes are also described in the application are shown in Tables 4, 5 and 6. […]

[2] = TNS fluorescence assay: experimental pKa of formulated lipid nanoparticles; assay type: physicochemical; settings: experimental surface pKa of empty LNP, cationic lipid/DSPC/cholesterol/PEG-lipid (50/10/38.5/1.5)
Description: The pKa of each cationic lipid was determined in lipid nanoparticles using an assay based on fluorescence of 6-(p-Toluidino)-2-naphthalenesulfonic acid sodium salt (TNS, Sigma Aldrich), which is a fluorescent probe for the conformational state of proteins^5. Empty lipid nanoparticles comprising of cationic lipid/DSPC/cholesterol/PEG-lipid (50/10/38.5/1.5) in distilled water at a concentration of 3.125 mM total lipid are formulated using NanoAssemblr® Spark™, and were then was characterized for LNP quality on the Zetasizer™ using a 30× dilution with 1×PBS in the low volume cuvette. Lipid nanoparticles were further diluted 4× using distilled water to 0.781 mM total lipid. TNS was prepared as a 25 μM stock solution in distilled water. Then 6.4 μL of diluted LNP samples of 0.781 mM total lipid were mixed with 10 μL of diluted TNS to a final volume of 250 μL with buffer containing 10 mM HEPES, 10 mM MES, 10 mM NH4OAc and 130 mM NaCl where the pH ranged from 3 to 9 in 0.5 pH increments.
Samples were mixed thoroughly, and the fluorescence intensity was measured at room temperature in a BioTek™ Synergy™ H1 Hybrid Multi-Mode Monochromator™ Fluorescence Microplate Reader using excitation and emission wavelengths of 321 nm and 445 nm respectively. A sigmoidal best fit analysis was applied to the fluorescence data using GraphPad Prism™ software, and the pKa was measured as the pH at half-maximal fluorescence intensity.

C57BL/6 mice = assay: In vivo delivery of EPO-encoded mRNA LNP via intravenous route, serum EPO ELISA; parameters: key to EPO Protein expression: IV in mice: *: The number of asterix symbols indicates protein expression levels interpreted by the inventors from quantitative data; **: The number of asterix symbols indicates protein expression levels interpreted by the inventors from quantitative data; ***: The number of asterix symbols indicates protein expression levels interpreted by the inventors from quantitative data; ****: The number of asterix symbols indicates protein expression levels interpreted by the inventors from quantitative data; *****: The number of asterix symbols indicates protein expression levels interpreted by the inventors from quantitative data; *******: The number of asterix symbols indicates protein expression levels interpreted by the inventors from quantitative data; settings: qualitative grade interpreted from quantitative data
Excerpt: Lipid Nanoparticles with the composition IL/DSPC/Cholesterol/PEG-DMG2000 (LM 02—see Table 3) were used to encapsulate recombinant human erythropoietin (EPO) encoded mRNA with 5-moU modifications [TriLink CleanCapo 5-moU EPO mRNA L7201]. To create the LNP, lipid mix in ethanol was microfluidically mixed with a low PH buffered solution of 5-moU EPO mRNA mixer at an N/P ratio of 6 using a NanoAssemblr® Ignite™ microfluidic mixer. The microfluidically mixed particles were downstream processed using Amicon® ultra 15 10 kDa MWCO units (EMD Millipore) filtration technique. The RNA loaded lipid particles were then characterized for size, PDI and Encapsulation Efficiency (EE). Size and PDI were measured using dynamic light scattering techniques described above, and nucleic acid encapsulation efficiency was calculated using a Quant-iT RiboGreen RNA assay as described supra, modified to use hEPO mNA as the standard instead if the standard RNA in the kit. The hydrodynamic diameter of these mRNA-LNPs was ˜70 nm with a PDI in the range of 0.02 to 0.1 and an encapsulation efficiency of ˜97.8%.
Animals were handled according to the Institutional Animal Care and Use Committee ethics protocols. For experiments, 6-8 week old C57BL/6 mice were purchased from Envigo (South Kent, WA, USA). For in vivo activity, female C57BL/6 mice were treated intravenously with EPO mRNA LNPs at specified dosages of 0.5-3 mg/Kg. Samples of 50-75 μL of blood were collected 6 h post administration via saphenous vein, and at regular time intervals of 24 h or 48 h.
After harvest, blood was immediately prepared to produce serum samples using standard techniques, and stored at −80 degrees C. Briefly, after collection, the blood was allowed to clot at room temperature for 15-30 minutes. The clot was removed by centrifuging the tubes at 1000-2000×g for 10 min at 4 degrees Celsius. The clear golden-yellow color supernatant was carefully removed and transferred to sterile screw-capped clear polypropylene tubes on ice. The serum was then stored, if necessary, at −80° C. until analysis.
Samples were thawed, then analyzed at appropriate dilutions for EPO protein expression and for cytokine/chemokine levels. The total serum EPO levels were evaluated using Quantikine® IVD EPO ELISA kit (Bio-Techne, Minneapolis, MN, USA).
Following i.v administration of a 0.5 mg/Kg dose of recombinant human EPO-encoded mRNA LNPs containing ionizable lipid MC3, PNI 121 or PNI 123 using the LM02 composition at N/P 6, EPO expression levels at 6 h (upper, FIG. 6) and at 24 h (lower, FIG. 6) in C56BL/6 mice were examined; hEPO protein was measured using Quantikine® IVD® ELISA Human Erythropoietin Immunoassay protocol.

primary human T cells = assay: EPO mRNA LNP delivery to primary human T cells, Quantikine IVD Human Epo ELISA; assay type: cell-based
Description: Reagents were acquired from Quantikine, Minneapolis, MN. The assay was performed as directed on the Quantikine® IVD® ELISA Human Erythropoietin Immunoassay protocol in the package insert. Briefly; primary human T cells were isolated from fresh whole blood using a negative selection protocol and activated using a triple activator. Seven days post-activation, T cells were dosed with mRNA LNPs encoding EPO at […] mRNA per 500,000 cells and N/P 10. After 48 h of exposure, the T cells were harvested and lysed for cytosolic EPO and media supernatant was sampled for secreted EPO. Quantikine® Human Serum Controls were used.

[3] = 5-moU EPO encoded LNPs, IL:DSPC:cholesterol:DMG-PEG (50:10:38.5:1.5), N/P 6
[4] = OVA encoded LNPs, payload 5-moU OVA, LM02, N/P 8
[5] = OVA encoded LNPs, payload WT OVA, LM02, N/P 8
[6] = Table 4 LNPs, payload and lipid mix not stated

Diameter (Z. ave, nm) [1, 3] [nm]	Encapsulation Efficiency (%) [1, 3] [%]	Polydispersity Index (PDI) [1, 3]	pKa [2]	Diameter (Z. ave, nm) [1, 4] [nm]	Encapsulation Efficiency (%) [1, 4] [%]	Polydispersity Index (PDI) [1, 4]	Diameter (Z. ave, nm) [1, 5] [nm]	Encapsulation Efficiency (%) [1, 5] [%]	Polydispersity Index (PDI) [1, 5]	Diameter (Z. ave, nm) [1, 6] [nm]	Encapsulation Efficiency (%) [1, 6] [%]	Polydispersity Index (PDI) [1, 6]	Structure (SMILES)	EPO Protein expression: IV in mice (C57BL/6 mice)	cytosolic EPO (primary human T cells; T cell lysate, 48 h exposure, N/P 10, FIG. 5)	secreted EPO (primary human T cells; media supernatant, 48 h exposure, N/P 10, FIG. 5)	Fold increase in EPO concentration relative to MC3 (primary human T cells; primary human T cells, 48 hours)	EPO concentration (mIU/mL), 48 hours (primary human T cells; primary human T cells, 48 hours, EPO mRNA LNP, N/P 10) [mIU/mL]
88.0	98.7	0.87	4.31	–	–	–	–	–	–	–	–	–	CC/C=C\CC1C(CC(=O)OCC(COCCCCCCCC/C=C\C/C=C\CCCCC)OCCCCCCCC/C=C\C/C=C\CCCCC)CCC1OC(=O)Cc1cn(C)cn1 (stereo not drawn) [PNI 143]	–	–	–	–	–
73.6	98.7	0.14	6.31	–	–	–	–	–	–	–	–	–	CC/C=C\CC1C(CC(=O)OCC(COCCCCCCCCC2CC2CCCCCCCC)OCCCCCCCCC2CC2CCCCCCCC)CCC1OC(=O)CCCN(C)C (stereo not drawn) [PNI 543]	***	–	–	–	–
65.1	98.8	0.04	–	65.8	95.2	0.07	67.5	95.4	0.03	77.2	88.6	0.07	CCCCC/C=C\C/C=C\CCCCCCCCC(CCCCCCCC/C=C\C/C=C\CCCCC)OC(=O)CCCN(C)C [MC3, DLin-MC3-DMA, reference compound]	–	no cytosolic EPO	about 545 mlU/mL	1.0	545.2
64.8	97.1	0.04	5.56	–	–	–	74.9	97.0	0.02	61.7	88.2	0.09	CC/C=C\CC1C(CC(=O)OCC(COCCCCCCCC/C=C\C/C=C\CCCCC)OCCCCCCCC/C=C\C/C=C\CCCCC)CCC1OC(=O)CCN(C)C (stereo not drawn) [PNI 128]	****	–	–	–	–
